Results reported in ChEMBL document CHEMBL1201862, “PubChem BioAssay data set” (2004).
Active and inactive are the calls of the source.

Columns and labels:
[1] = Luminescence Cell-Based Dose Confirmation HTS to Identify Activators of 5'UTR Stem-Loop Driven Alpha-Synuclein mRNA Translation in H4 Neuroglioblastoma Cells. [Related pubchem assays: 1829 (Project Summary), 1814 (Primary HTS)]; type: functional
Cytochrome P450 2C9 = Cytochrome P450 2C9 (Homo sapiens, UniProt P11712)
Cytochrome P450 2C19 = Cytochrome P450 2C19 (Homo sapiens, UniProt P33261); experiment: Cytochrome panel assay with activity outcomes. Panel member name: p450-cyp2c19 Compounds with AC50 equal or less than 10 uM are considered active; type: functional; conditions: read-out: AC50
Cytochrome P450 2C19, sequence (P33261 whole entry): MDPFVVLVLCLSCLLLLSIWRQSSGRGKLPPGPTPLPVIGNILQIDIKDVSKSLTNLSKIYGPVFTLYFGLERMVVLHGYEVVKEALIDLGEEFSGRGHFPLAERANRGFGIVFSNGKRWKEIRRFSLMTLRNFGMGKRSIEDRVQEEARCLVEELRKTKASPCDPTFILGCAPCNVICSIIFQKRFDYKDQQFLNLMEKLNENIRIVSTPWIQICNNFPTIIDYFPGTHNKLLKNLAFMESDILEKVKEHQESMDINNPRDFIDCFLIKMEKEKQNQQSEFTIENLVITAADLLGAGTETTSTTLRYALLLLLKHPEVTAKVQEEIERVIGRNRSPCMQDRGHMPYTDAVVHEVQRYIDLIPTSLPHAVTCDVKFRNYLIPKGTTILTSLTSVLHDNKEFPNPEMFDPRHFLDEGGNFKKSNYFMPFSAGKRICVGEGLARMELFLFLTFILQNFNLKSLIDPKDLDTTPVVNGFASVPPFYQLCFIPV

Cytochrome P450 1A2 = target: T1, Cytochrome P450 1A2 (Homo sapiens, UniProt P05177);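 further: PubChem cytochrome P450 panel assay, CYP1A2 panel member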
T1 sequence (P05177 whole entry): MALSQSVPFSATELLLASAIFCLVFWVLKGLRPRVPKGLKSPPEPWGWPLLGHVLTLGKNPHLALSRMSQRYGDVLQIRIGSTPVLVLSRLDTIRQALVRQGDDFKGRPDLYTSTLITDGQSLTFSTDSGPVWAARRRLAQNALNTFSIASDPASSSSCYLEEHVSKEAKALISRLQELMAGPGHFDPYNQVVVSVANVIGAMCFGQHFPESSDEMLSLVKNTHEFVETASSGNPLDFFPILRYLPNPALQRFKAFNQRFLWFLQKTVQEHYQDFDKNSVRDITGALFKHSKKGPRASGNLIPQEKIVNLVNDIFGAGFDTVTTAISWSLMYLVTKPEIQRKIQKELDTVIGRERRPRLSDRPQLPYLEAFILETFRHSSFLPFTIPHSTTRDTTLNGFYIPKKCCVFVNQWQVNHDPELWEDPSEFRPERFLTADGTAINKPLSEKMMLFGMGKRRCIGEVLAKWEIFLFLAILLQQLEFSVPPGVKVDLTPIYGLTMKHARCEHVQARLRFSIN

H4 = experiment: Luminescence Cell-Based Dose Response HTS to Identify Activators of 5'UTR Stem-Loop Driven Prion Protein mRNA Translation in H4 Neuroglioblastoma Cells. [Related pubchem assays: 1829 (Project Summary), 1814 (Primary HTS)]; type: functional; conditions: Homo sapiens
[2] = Luminescence Cell-Based Dose Response HTS to Identify Activators of Luciferase Translation or Activity in H4 […] Cells. [Related pubchem assays: 1829 (Project Summary), 1814 (Primary HTS)]; type: functional
[3] = target: FAD-linked sulfhydryl oxidase ALR (Homo sapiens, UniProt P55789); experiment: inhibitors of human ALR sulfhydryl oxidase, dose response, biochemical, H2O2 detection, luminescence, cherry-pick (AID 493248)
FAD-linked sulfhydryl oxidase ALR, sequence (P55789 whole entry, the tested form may be a part): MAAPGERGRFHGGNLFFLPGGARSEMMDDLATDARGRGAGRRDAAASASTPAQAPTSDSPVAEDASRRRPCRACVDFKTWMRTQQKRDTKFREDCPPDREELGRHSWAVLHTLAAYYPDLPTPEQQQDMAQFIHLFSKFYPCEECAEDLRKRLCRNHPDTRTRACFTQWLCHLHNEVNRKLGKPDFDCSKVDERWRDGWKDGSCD

Fatty acid synthase [4] = target: T2, Fatty acid synthase (Homo sapiens, UniProt P49327); experiment: FAS thioesterase domain inhibitors, dose response, biochemical, kinetic fluorescence intensity (AID 624326); type: functional;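 further: rate of fluorescence rise from hydrolysis of a fluorogenic O-methyl fluorescein ester substrate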
T2 sequence (P49327 whole entry, the tested form may be a part): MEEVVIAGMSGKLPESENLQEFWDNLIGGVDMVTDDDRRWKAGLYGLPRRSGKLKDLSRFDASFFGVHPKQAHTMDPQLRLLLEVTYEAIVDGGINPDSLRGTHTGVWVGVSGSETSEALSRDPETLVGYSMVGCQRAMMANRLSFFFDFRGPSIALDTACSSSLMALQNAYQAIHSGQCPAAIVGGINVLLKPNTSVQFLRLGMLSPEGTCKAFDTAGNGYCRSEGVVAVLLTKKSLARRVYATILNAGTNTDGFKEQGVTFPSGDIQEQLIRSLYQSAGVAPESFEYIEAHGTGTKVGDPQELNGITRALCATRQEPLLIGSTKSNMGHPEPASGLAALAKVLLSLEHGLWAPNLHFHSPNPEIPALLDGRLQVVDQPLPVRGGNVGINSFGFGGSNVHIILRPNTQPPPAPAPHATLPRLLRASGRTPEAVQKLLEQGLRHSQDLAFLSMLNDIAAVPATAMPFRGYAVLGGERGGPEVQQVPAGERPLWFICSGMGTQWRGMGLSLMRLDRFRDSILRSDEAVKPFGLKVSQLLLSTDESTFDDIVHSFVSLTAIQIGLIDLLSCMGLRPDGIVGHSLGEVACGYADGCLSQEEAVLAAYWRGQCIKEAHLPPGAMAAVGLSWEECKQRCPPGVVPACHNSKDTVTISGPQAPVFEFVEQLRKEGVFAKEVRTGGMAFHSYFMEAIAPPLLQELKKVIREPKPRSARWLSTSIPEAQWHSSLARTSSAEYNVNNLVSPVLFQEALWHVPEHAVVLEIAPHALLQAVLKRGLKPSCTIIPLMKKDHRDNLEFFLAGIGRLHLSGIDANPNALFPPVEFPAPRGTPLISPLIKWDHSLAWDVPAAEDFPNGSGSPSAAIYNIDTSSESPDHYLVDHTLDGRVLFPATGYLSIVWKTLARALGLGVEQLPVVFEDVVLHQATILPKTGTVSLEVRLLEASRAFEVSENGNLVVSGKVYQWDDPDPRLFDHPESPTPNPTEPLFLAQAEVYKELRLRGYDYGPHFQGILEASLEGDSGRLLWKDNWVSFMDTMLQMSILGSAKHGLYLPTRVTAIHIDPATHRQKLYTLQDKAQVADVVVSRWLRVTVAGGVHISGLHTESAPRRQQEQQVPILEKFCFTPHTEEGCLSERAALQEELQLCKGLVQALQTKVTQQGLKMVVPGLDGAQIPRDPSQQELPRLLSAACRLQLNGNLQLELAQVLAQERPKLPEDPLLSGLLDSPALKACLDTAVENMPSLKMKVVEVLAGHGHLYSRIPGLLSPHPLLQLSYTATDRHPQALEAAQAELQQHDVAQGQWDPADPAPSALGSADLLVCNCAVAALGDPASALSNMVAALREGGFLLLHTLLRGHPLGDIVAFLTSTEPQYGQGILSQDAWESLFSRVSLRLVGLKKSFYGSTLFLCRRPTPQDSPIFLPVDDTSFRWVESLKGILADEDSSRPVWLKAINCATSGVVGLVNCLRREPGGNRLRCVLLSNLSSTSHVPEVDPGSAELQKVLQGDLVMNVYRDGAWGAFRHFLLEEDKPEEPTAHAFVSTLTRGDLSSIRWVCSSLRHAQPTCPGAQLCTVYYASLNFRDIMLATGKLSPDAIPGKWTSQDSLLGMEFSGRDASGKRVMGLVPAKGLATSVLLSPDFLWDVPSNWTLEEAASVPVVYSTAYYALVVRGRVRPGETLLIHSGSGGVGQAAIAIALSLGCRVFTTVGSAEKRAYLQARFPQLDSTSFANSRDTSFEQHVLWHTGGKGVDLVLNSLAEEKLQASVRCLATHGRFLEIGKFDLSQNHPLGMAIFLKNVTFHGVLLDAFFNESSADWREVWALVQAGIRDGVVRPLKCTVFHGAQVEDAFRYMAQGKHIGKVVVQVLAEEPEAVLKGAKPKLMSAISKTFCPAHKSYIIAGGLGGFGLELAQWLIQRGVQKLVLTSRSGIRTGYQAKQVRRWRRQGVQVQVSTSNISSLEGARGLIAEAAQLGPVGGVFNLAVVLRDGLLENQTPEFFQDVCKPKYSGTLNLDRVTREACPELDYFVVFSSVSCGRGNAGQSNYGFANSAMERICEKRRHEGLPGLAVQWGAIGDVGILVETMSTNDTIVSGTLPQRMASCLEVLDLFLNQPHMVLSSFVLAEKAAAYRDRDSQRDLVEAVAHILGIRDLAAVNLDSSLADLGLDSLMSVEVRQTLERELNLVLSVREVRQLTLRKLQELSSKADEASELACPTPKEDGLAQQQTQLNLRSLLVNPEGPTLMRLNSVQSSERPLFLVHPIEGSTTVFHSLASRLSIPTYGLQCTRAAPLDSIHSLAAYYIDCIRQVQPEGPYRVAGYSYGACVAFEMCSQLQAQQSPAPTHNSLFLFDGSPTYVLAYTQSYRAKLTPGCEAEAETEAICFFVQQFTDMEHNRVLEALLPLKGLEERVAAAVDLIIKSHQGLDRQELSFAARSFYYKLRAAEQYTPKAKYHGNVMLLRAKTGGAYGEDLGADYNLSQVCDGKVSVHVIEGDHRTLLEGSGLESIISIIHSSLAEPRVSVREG

Fatty acid synthase [5] = target: T2, Fatty acid synthase; experiment: FAS thioesterase domain inhibitors, dose response, biochemical, endpoint fluorescence intensity, uHTS hits (AID 624327); type: functional;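 further: fluorescence from hydrolysis of an O-methyl fluorescein acyl ester substrate by the enzyme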
[6] = target: Luciferin 4-monooxygenase (Photinus pyralis, UniProt P08659); experiment: firefly luciferase enzyme inhibitors, dose response, biochemical, luminescence (AID 1891)
Luciferin 4-monooxygenase, sequence (P08659 whole entry): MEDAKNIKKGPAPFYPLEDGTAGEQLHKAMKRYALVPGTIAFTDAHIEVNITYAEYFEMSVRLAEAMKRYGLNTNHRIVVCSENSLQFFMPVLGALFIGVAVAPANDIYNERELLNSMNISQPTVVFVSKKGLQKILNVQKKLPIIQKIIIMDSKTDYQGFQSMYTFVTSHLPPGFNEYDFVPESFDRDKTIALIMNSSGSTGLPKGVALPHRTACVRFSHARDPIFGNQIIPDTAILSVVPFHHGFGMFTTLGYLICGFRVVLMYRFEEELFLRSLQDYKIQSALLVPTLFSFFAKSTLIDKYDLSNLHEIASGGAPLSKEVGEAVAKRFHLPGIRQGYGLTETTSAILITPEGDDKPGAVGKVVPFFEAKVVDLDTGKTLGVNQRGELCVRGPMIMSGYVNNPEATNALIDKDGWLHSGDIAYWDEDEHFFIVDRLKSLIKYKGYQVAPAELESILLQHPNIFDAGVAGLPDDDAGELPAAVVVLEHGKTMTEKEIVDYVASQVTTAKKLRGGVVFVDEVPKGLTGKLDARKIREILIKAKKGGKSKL

[7] = Luminescence Cell-Based Dose Confirmation HTS to Identify Inhibitors of Platelet Dense Granule Release. [Related pubchem assays: 1663 (Primary HTS), 1678 (Summary of Project)]; type: functional
Cytochrome P450 3A4 = Cytochrome P450 3A4 (Homo sapiens, UniProt P08684);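 further: CYP3A4 tested as one member of a cytochrome P450 panel screen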
Cytochrome P450 3A4, sequence (P08684 whole entry): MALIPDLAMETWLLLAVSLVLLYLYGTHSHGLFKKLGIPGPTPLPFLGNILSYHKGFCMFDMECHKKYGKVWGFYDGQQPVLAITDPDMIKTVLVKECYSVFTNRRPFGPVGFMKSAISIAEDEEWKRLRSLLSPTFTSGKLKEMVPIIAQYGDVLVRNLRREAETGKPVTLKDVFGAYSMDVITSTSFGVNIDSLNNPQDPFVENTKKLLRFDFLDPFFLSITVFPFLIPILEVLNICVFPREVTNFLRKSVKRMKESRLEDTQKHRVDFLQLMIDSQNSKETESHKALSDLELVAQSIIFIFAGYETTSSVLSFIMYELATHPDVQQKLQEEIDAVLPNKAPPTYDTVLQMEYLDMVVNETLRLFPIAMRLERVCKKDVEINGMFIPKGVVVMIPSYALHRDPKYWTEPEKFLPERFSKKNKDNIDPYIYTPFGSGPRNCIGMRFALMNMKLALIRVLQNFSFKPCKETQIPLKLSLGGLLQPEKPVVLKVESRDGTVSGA

[8] = growth suppression of PTEN-null colon cells, dose response, cell-based, HCT116 PTEN knockout (AID 1047); type: functional;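 further: HCT116 colon tumor cells with PTEN knocked out; cells exposed to compound for 60 hours before readout; potency for loss of cell viability measured by luminescence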
[9] = growth suppression of beta-catenin-knockout colon cells, dose response, cell-based, HCT116, human colon tumor (AID 1045); type: functional;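 further: HCT116 colon tumor cells with beta catenin knocked out; cells exposed to compound for 60 hours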
[10] = target: Heat shock protein HSP 90-alpha (Homo sapiens, UniProt P07900); type: functional, organism-based
[11] = cytotoxicity toward NIH3T3 fibroblasts, dose response, counter-screen, cell-based, ATP luminescence, mouse fibroblasts (AID 2010); type: functional;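 further: cells exposed to compound for about 90 hours before reading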
[12] = inhibitors of intracellular T. cruzi replication, confirmation, NIH3T3 host cells, beta-gal luminescence (AID 2044); type: functional, cell-based;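 further: intracellular parasites grown in NIH/3T3 mouse fibroblasts as host cells; luminescent beta-galactosidase reporter signal from transgenic T. cruzi replicating inside host cells; inhibitors lower the luminescence signal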
[13] = target: T3, Corticotropin-releasing factor receptor 2/Corticotropin-releasing factor-binding protein (Homo sapiens, UniProt P24387+Q13324); experiment: Dose Response confirmation of uHTS hits for small molecule antagonists of the CRF-binding protein and CRF-R2 receptor complex.; type: functional; conditions: read-out: IC50_Mean
T3 sequence (Q13324 whole entry): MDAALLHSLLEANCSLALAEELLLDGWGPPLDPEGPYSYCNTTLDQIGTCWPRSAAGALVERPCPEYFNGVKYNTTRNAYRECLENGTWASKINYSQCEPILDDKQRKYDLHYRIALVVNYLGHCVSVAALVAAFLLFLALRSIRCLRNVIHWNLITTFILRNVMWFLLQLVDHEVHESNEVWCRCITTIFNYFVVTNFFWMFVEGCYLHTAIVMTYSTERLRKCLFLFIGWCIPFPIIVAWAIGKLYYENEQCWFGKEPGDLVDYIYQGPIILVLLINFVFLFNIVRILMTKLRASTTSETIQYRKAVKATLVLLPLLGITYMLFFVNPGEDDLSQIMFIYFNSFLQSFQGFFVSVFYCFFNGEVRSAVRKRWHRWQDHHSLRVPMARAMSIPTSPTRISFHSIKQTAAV
T3 sequence (P24387 whole entry): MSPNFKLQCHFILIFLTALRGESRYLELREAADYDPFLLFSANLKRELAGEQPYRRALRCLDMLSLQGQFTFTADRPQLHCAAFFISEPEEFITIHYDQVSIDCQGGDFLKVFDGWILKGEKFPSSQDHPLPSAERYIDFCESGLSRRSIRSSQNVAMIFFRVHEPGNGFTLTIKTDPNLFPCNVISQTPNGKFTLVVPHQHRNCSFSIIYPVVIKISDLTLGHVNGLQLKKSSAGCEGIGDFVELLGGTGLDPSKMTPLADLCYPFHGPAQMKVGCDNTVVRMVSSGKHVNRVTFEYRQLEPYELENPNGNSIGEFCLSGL

[14] = target: T3, Corticotropin-releasing factor receptor 2/Corticotropin-releasing factor-binding protein; experiment: activators of CRF receptor 2 with binding protein – uHTS hits, confirmation (AID 602473); type: functional; conditions: read-out: EC50_Mean

Cytochrome P450 2C9, sequence (P11712 whole entry): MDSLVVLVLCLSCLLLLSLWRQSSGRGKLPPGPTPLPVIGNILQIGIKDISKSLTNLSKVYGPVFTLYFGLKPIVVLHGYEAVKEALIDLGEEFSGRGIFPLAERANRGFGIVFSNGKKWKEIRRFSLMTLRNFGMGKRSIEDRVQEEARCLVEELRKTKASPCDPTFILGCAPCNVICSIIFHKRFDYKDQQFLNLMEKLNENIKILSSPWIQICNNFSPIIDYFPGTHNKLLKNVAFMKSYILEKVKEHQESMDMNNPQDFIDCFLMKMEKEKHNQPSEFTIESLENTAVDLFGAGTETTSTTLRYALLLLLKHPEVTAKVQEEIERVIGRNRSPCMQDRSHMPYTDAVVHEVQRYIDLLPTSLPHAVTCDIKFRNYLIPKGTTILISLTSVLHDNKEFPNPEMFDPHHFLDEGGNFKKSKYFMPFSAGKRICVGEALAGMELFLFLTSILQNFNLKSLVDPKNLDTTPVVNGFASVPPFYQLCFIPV

Compound: CN1CCN(C(=O)c2ccc(COc3ccc(C(C)(C)C)cc3)o2)CC1
- EC50 [1]: 4.82 µM (active)
- AC50 (Cytochrome P450 2C9): 31.6 µM (inconclusive)
- AC50 (Cytochrome P450 2C19): 25.1 µM (inconclusive)
- AC50 (Cytochrome P450 1A2): 12.6 µM (inconclusive)
- EC50 (H4): 35.2 µM (active)
- EC50 [2]: 0.148 µM (inconclusive)

Compound: Cc1nc2ccccc2[nH]c(=O)c1=NNc1ccccc1
- EC50 [1]: 24.1 µM (active)
- EC50 (H4): 19 µM (active)
- EC50 [2]: > 120 µM (not active)

Compound: O=C(O)c1cc(O)ccc1NC(=O)c1cccc2ccccc12
- AC50 [3]: 3.41 µM (active)

Compound: Brc1ccc2nc(-c3cccs3)c(NCC3CCCO3)n2c1 (stereo not given)
- EC50 [1]: 18.9 µM (active)
- EC50 (H4): 17.5 µM (active)
- EC50 [2]: 9.6 µM (active)

Compound: Fc1cc(Br)ccc1N=C(S)NCCc1ccccc1
- EC50 [1]: 15.9 µM (active)
- EC50 (H4): 27.5 µM (active)
- EC50 [2]: 21.3 µM (active)

Compound: O=C(NCc1ccc(C(F)(F)F)cc1)C1CC(c2c(Cl)cccc2Cl)=NO1 (stereo not given)
- IC50 (Fatty acid synthase [4]): 9.63 µM (active)
- IC50 (Fatty acid synthase [5]): 10.3 µM (active)

Compound: Cn1cc(S(=O)(=O)N2CCOCC2)cc1C(=O)Nc1cccc(Cl)c1
- EC50 [6]: > 112 µM (not active)
- EC50 [7]: > 112 µM (not active)

Compound: COC(=O)c1ccc(CSc2nc3cc(C)ccc3[nH]2)o1
- AC50 [3]: 2.71 µM (active)

Compound: Cc1ccc(C(=O)NC(=S)Nc2cc(-c3nc4ccccc4s3)ccc2C)cc1
- AC50 (Cytochrome P450 2C9): 1.78 µM (inconclusive)
- AC50 (Cytochrome P450 3A4): 10 µM (inconclusive)
- EC50 [8]: 26.9 µM (active)
- EC50 [9]: 22 µM (active)

Compound: CCN1C/C(=C\c2cccc([N+](=O)[O-])c2)C(=O)/C(=C/c2cccc([N+](=O)[O-])c2)C1
- EC50 [8]: 0.117 µM (active)
- EC50 [9]: 0.187 µM (active)
- AC50 [10]: 8.11 µM (active)

Compound: O=C(Nc1ccc(C(F)(F)F)cc1)c1cccc(-n2cnnn2)c1
- IC50 (Fatty acid synthase [4]): 5.97 µM (active)
- IC50 (Fatty acid synthase [5]): 11.1 µM (active)

Compound: O=C(NCC(c1cccnc1)N1CCN(c2ccccc2)CC1)c1ccco1 (stereo not given)
- EC50 [11]: > 60 µM (not active)
- EC50 [12]: 0.998 µM (active)
- AC50 [3]: 3.08 µM (active)

Compound: CC(NC(=O)c1ccc([N+](=O)[O-])cc1Cl)C1CC2CCC1C2 (stereo not given)
- IC50 (Fatty acid synthase [4]): 11.1 µM (active)
- IC50 (Fatty acid synthase [5]): 9.39 µM (active)

Compound: O=C(OCC(=O)N1CCN(C(=O)c2ccco2)CC1)c1cc(-c2ccccc2)nc2ccccc12
- AC50 [10]: 4.24 µM (active)

Compound: CN(C)c1oc(-c2ccco2)nc1C#N
- EC50 [6]: > 112 µM (not active)
- EC50 [7]: > 112 µM (not active)

Compound: COc1ccc2c(c1)NP(=S)(Oc1ccccc1)N2 (stereo not given)
- AC50 [3]: 2.02 µM (active)

Compound: O=C(NCCCc1ccccc1)c1cccc([N+](=O)[O-])c1
- IC50 [13]: > 47.1 µM (inactive)
- IC50 (Fatty acid synthase [4]): 4.33 µM (active)
- EC50 [14]: > 53 µM (inactive)
- IC50 (Fatty acid synthase [5]): 5.56 µM (active)

Compound: OCCSc1nncn1/N=C/c1c[nH]c2ccccc12
- EC50 [6]: > 112 µM (not active)
- EC50 [7]: > 112 µM (not active)

Compound: Cc1ccc(OCCC(=O)OCc2csc(CC(=O)Nc3ccccc3C)n2)cc1
- EC50 [6]: > 112 µM (not active)
- EC50 [7]: > 112 µM (not active)

Compound: O=C1N=C(c2ccccc2)N(c2ccccc2)C(=O)/C1=C(/O)c1ccccc1
- EC50 [1]: 19.2 µM (active)
- EC50 (H4): > 120 µM (not active)
- EC50 [2]: > 120 µM (not active)
